Experimental data published in PubChem BioAssay AID1845201 (Molecular Pharmacology Branch, DTP, NCI, 2023).
Values joined by “and” are separate entries in the source; they are usually repeats but may differ in a detail not shown here. Identical values can stand only once.

System: COR L88 complex tumor spheroid viability
Test: Anticancer human tumor COR L88 cell line growth inhibition;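 note: compound exposure lasted 7 days before viability readout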;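 for viability, T/C: percent of DMSO vehicle-treated spheroids = 100%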
Conditions: for viability, T/C: stronger effect = lower value
Description: Multicellular complex tumor spheroid response to DNA repair inhibitors in combination with DNA-damaging drugs
This study explores the anticancer activities of DNA-damaging drugs and inhibitors of DNA damage repair, both as single agents and in combinations. Complex tumor spheroids comprised of malignant cells, endothelial cells and mesenchymal stem cells served as an in vitro model for human solid tumors. This model system incorporates physiologically relevant features and patient-derived or established malignant cell lines with clinically relevant genetic alterations from many tumor types. Twenty-six patient-derived or established malignant cell lines were evaluated representing sarcoma, melanoma, small cell lung cancer (SCLC), non-small cell lung cancer (NSCLC), as well as bladder, ovarian and pancreatic cancers. The concentration ranges selected for each drug and investigational agent were based upon clinically achievable concentrations if the clinical Cmax of the agent was known.
Compounds. The drugs and compounds olaparib (NSC753686), talazoparib (NSC767125), berzosertib (NSC777718), elimusertib (NSC800525), nedisertib (NSC802822), VX-984 (NSC792969), AZD-1390 (NSC803789), temozolomide (NSC362856), topotecan (NSC609699), trabectedin (NSC813783), staurosporine (NSC755774), and gemcitabine (NSC613327) were obtained from the National Cancer Institute (NCI) Developmental Therapeutics Program Chemical Repository. The FDA-approved anticancer drug set is available from the Developmental Therapeutics Program at https://dtp.cancer.gov/organization/dscb/obtaining/available_plates.htm. […] The stock solutions were prepared in dimethyl sulfoxide (DMSO, Sigma-Aldrich, St. Louis, MO, cat. D2650) at 400-fold the tested concentration and stored at -70 degrees C. Prior to their use, the stock solutions were diluted in fresh medium and the final DMSO concentration in the assay was 0.25% (v/v). All drugs and investigational agents were tested over a range starting from a high concentration at or near the clinical Cmax and decreasing in half-log increments. If the clinical Cmax for an agent had not been determined, the highest concentration tested was 10 microM.
Cell Lines. The patient-derived cancer cell (PDC) lines: 156681-154-R-J1-PDC, 283228-195-R-J1-PDC, 287954-098-R-J1-PDC, 292921-168-R-J2-PDC, 349418-098-R-PDC, 425362-245-T-J1-PDC, 556581-035-R-J1-PDC, and BL0293-F563-PDC were received from the NCI Patient-Derived Models Repository (PDMR, https://pdmr.cancer.gov). The established cell lines HS-SY-2 (RRID:CVCL_8719), MPNST, and SYO-1 (RRID:CVCL_7146) were obtained from the Sloan Kettering Institute. The alveolar soft parts sarcoma cell line ASPS-1 (RRID:CVCL_S738) was established at the NCI and grown from internal seed stocks. The following established cell lines were purchased from the American Type Culture Collection (ATCC, Manassas, VA): G-401 (ATCC, cat. CRL-1441, RRID:CVCL_0270), SW982 (ATCC, cat. HTB-93, RRID:CVCL_1734), VA-ES-BJ (ATCC, cat. CRL-2138, RRID:CVCL_1785), NCI-H719 (ATCC, cat. CRL-5837, RRID:CVCL_1582), NCI-H196 (ATCC, cat. CRL-5823, RRID:CVCL_1509), NCI-H841 (ATCC, cat. CRL-5845, RRID:CVCL_1595), NCI-H1618 (ATCC, cat. CRL-5879, RRID:CVCL_1480), NCI-H1876 (ATCC, cat. CRL-5902, RRID:CVCL_1503), DMS 114 (ATCC, cat. CRL-2066; RRID:CVCL_1174), NCI-H211 (ATCC, cat. CRL-5824; RRID:CVCL_1529), and SW 1271 (ATCC, cat. CRL-2177, RRID:CVCL_1716). The small cell lung cancer cell line COR-L88 was purchased from Sigma-Aldrich (cat. 92031917-1VL, RRID:CVCL_1141). The non-small cell lung cancer cell lines NCI-H226 (RRID:CVCL_1544) and NCI-H322M (RRID:CVCL_1557) were established at the NCI and grown from internal seed stocks. Pooled donor human umbilical vein endothelial cells (HUVEC, Lonza, cat. CC-2519) and human mesenchymal stem cells (hMSC, Lonza, cat. PT-2501) were purchased from Lonza (Walkersville, MD).
Cell Culture. All cells were maintained in an incubator at 37 degrees C and 5% CO2 with 95% humidity. […]

[1] = curve of first compound, second compound 0.003 µM
[2] = curve of first compound, second compound 0.00949 µM
[3] = curve of first compound, second compound 0.03 µM
[4] = curve of first compound, second compound 0.0949 µM
[5] = curve of first compound, second compound 0.3 µM
[6] = second compound 0.003 µM, first compound 0.00949 µM
[7] = second compound 0.003 µM, first compound 0.03 µM
[8] = second compound 0.003 µM, first compound 0.0949 µM
[9] = second compound 0.003 µM, first compound 0.3 µM
[10] = second compound 0.003 µM, first compound 0.949 µM
[11] = second compound 0.003 µM, first compound 3 µM
[12] = second compound 0.00949 µM, first compound 0.00949 µM
[13] = second compound 0.00949 µM, first compound 0.03 µM
[14] = second compound 0.00949 µM, first compound 0.0949 µM
[15] = second compound 0.00949 µM, first compound 0.3 µM
[16] = second compound 0.00949 µM, first compound 0.949 µM
[17] = second compound 0.00949 µM, first compound 3 µM
[18] = second compound 0.03 µM, first compound 0.00949 µM
[19] = second compound 0.03 µM, first compound 0.03 µM
[20] = second compound 0.03 µM, first compound 0.0949 µM
[21] = second compound 0.03 µM, first compound 0.3 µM
[22] = second compound 0.03 µM, first compound 0.949 µM
[23] = second compound 0.03 µM, first compound 3 µM
[24] = second compound 0.0949 µM, first compound 0.00949 µM
[25] = second compound 0.0949 µM, first compound 0.03 µM
[26] = second compound 0.0949 µM, first compound 0.0949 µM
[27] = second compound 0.0949 µM, first compound 0.3 µM
[28] = second compound 0.0949 µM, first compound 0.949 µM
[29] = second compound 0.0949 µM, first compound 3 µM
[30] = second compound 0.3 µM, first compound 0.00949 µM
[31] = second compound 0.3 µM, first compound 0.03 µM
[32] = second compound 0.3 µM, first compound 0.0949 µM
[33] = second compound 0.3 µM, first compound 0.3 µM
[34] = second compound 0.3 µM, first compound 0.949 µM
[35] = second compound 0.3 µM, first compound 3 µM

Cn1ncnc1[C@H]1c2n[nH]c(=O)c3cc(F)cc(c23)N[C@@H]1c1ccc(F)cc1 + CC[C@@]1(O)C(=O)OCc2c1cc1n(c2=O)Cc2cc3c(CN(C)C)c(O)ccc3nc2-1
IC50 [1]: 90.9 nM | IC50 [2]: < 9.49 nM | IC50 [3]: < 9.49 nM | IC50 [4]: < 9.49 nM | IC50 [5]: < 9.49 nM | viability, T/C [6]: 65.9% | viability, T/C [7]: 61.9% | viability, T/C [8]: 47.4% | viability, T/C [9]: 42.4% | viability, T/C [10]: 41.1% | viability, T/C [11]: 38.3% | viability, T/C [12]: 49.7% | viability, T/C [13]: 44% | viability, T/C [14]: 44.1% | viability, T/C [15]: 43.1% | viability, T/C [16]: 40.2% | viability, T/C [17]: 40.6% | viability, T/C [18]: 48.2% | viability, T/C [19]: 49.5% | viability, T/C [20]: 43.2% | viability, T/C [21]: 41.5% | viability, T/C [22]: 38.1% | viability, T/C [23]: 36.5% | viability, T/C [24]: 41.2% | viability, T/C [25]: 38.4% | viability, T/C [26]: 37.3% | viability, T/C [27]: 34.9% | viability, T/C [28]: 31.6% | viability, T/C [29]: 24.5% | viability, T/C [30]: 36% | viability, T/C [31]: 32.6% | viability, T/C [32]: 32.4% | viability, T/C [33]: 26.9% | viability, T/C [34]: 24.6% | viability, T/C [35]: 17.4%

Cc1sc2c(c1C)C(c1ccc(Cl)cc1)=NC(CC(=O)Nc1ccc(O)cc1)c1nnc(C)n1-2 (configuration not stated) + CC[C@@]1(O)C(=O)OCc2c1cc1n(c2=O)Cc2cc3c(CN(C)C)c(O)ccc3nc2-1
IC50 [1]: 406 nM | IC50 [2]: 441 nM | IC50 [3]: 531 nM | IC50 [4]: 185 nM | IC50 [5]: 70.9 nM | viability, T/C [6]: 107% | viability, T/C [7]: 82.7% | viability, T/C [8]: 100% | viability, T/C [9]: 59.9% | viability, T/C [10]: 23.6% | viability, T/C [11]: 15.1% | viability, T/C [12]: 81.8% | viability, T/C [13]: 92.6% | viability, T/C [14]: 104% | viability, T/C [15]: 64.2% | viability, T/C [16]: 23.7% | viability, T/C [17]: 13.3% | viability, T/C [18]: 71.2% | viability, T/C [19]: 88.7% | viability, T/C [20]: 106% | viability, T/C [21]: 73% | viability, T/C [22]: 25.3% | viability, T/C [23]: 8.57% | viability, T/C [24]: 66.6% | viability, T/C [25]: 76.2% | viability, T/C [26]: 85.2% | viability, T/C [27]: 31.2% | viability, T/C [28]: 7.66% | viability, T/C [29]: 5.05% | viability, T/C [30]: 53.1% | viability, T/C [31]: 60.9% | viability, T/C [32]: 47.4% | viability, T/C [33]: 9.5% | viability, T/C [34]: 3.88% | viability, T/C [35]: 2.4%

CC(C)n1c(=O)n(C)c2cnc3cc(F)c(-c4ccc(OCCCN5CCCCC5)nc4)cc3c21
viability, T/C (compound 0.0316 µM): 103% and 92.5% and 102% | viability, T/C (compound 0.1 µM): 113% and 103% (2×) | viability, T/C (compound 0.316 µM): 110% and 99.5% and 98.2% | viability, T/C (compound 1 µM): 94.8% and 88.6% and 99% | viability, T/C (compound 3.16 µM): 95.3% and 89.8% and 87.5% | viability, T/C (compound 10 µM): 56.5% and 61% and 56.6% | IC50 (curve of compound): > 10000 nM

CC1COCCN1c1cc(-c2ccnn2C)c2ccnc(-c3ccn[nH]3)c2n1 (configuration not stated) + Cn1nnc2c(C(N)=O)ncn2c1=O
IC50 (curve of first compound, second compound 1 µM): 159 nM | IC50 (curve of first compound, second compound 3.16 µM): 77.4 nM | IC50 (curve of first compound, second compound 10 µM): < 31.6 nM | IC50 (curve of first compound, second compound 31.6 µM): < 31.6 nM | IC50 (curve of first compound, second compound 100 µM): < 31.6 nM | viability, T/C (second compound 1 µM, first compound 0.0316 µM): 80.7% | viability, T/C (second compound 1 µM, first compound 0.1 µM): 53.9% | viability, T/C (second compound 1 µM, first compound 0.316 µM): 41.1% | viability, T/C (second compound 1 µM, first compound 1 µM): 26.6% | viability, T/C (second compound 1 µM, first compound 3.16 µM): 11.2% | viability, T/C (second compound 1 µM, first compound 10 µM): 5.06% | viability, T/C (second compound 3.16 µM, first compound 0.0316 µM): 59% | viability, T/C (second compound 3.16 µM, first compound 0.1 µM): 47.8% | viability, T/C (second compound 3.16 µM, first compound 0.316 µM): 33.9% | viability, T/C (second compound 3.16 µM, first compound 1 µM): 22.4% | viability, T/C (second compound 3.16 µM, first compound 3.16 µM): 11.9% | viability, T/C (second compound 3.16 µM, first compound 10 µM): 4.44% | viability, T/C (second compound 10 µM, first compound 0.0316 µM): 46.1% | viability, T/C (second compound 10 µM, first compound 0.1 µM): 36.3% | viability, T/C (second compound 10 µM, first compound 0.316 µM): 29.4% | viability, T/C (second compound 10 µM, first compound 1 µM): 18.4% | viability, T/C (second compound 10 µM, first compound 3.16 µM): 9.76% | viability, T/C (second compound 10 µM, first compound 10 µM): 3.5% | viability, T/C (second compound 31.6 µM, first compound 0.0316 µM): 41.7% | viability, T/C (second compound 31.6 µM, first compound 0.1 µM): 33.8% | viability, T/C (second compound 31.6 µM, first compound 0.316 µM): 24.1% | viability, T/C (second compound 31.6 µM, first compound 1 µM): 16.8% | viability, T/C (second compound 31.6 µM, first compound 3.16 µM): 7.93% | viability, T/C (second compound 31.6 µM, first compound 10 µM): 3.99% | viability, T/C (second compound 100 µM, first compound 0.0316 µM): 34.3% | viability, T/C (second compound 100 µM, first compound 0.1 µM): 27.8% | viability, T/C (second compound 100 µM, first compound 0.316 µM): 21.5% | viability, T/C (second compound 100 µM, first compound 1 µM): 12.3% | viability, T/C (second compound 100 µM, first compound 3.16 µM): 6.89% | viability, T/C (second compound 100 µM, first compound 10 µM): 3.01%
